Laboratory results published in ChEMBL document CHEMBL1201862, “PubChem BioAssay data set” (2004).
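Exposure lasted 48 hours, with cells grown in 96-well plates and compounds tested at five concentrations. Here, GI50 denotes the concentration required for 50% inhibition of growth.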 Active and inactive are the calls of the source. No stated cut-off is given here; in the data, active = GI50 up to about 1.1 µM and inactive = higher.

How the values were obtained:
Test in all cases: growth of human tumour cells (NCI), 48 h
786-0 = test system: 786-0
HCC 2998 = test system: HCC 2998
IGROV-1 = test system: IGROV-1
K562 = test system: K562
LOX IMVI = test system: LOX IMVI
M14 = test system: M14
MDA-MB-231 = test system: MDA-MB-231
MOLT-4 = test system: MOLT-4
NCI-H522 = test system: NCI-H522
NCI/ADR-RES = test system: NCI/ADR-RES
PC-3 = test system: PC-3
RXF 393 = test system: RXF 393
SF-268 = test system: SF-268
SK-MEL-2 = test system: SK-MEL-2
SK-OV-3 = test system: SK-OV-3
T47D = test system: T47D
TK-10 = test system: TK-10
U-251 = test system: U-251
UACC-257 = test system: UACC-257

Measured: GI50

Cn1c(=O)c2ccccc2[n+]2c(-c3cccc([N+](=O)[O-])c3)csc12
inactive: 786-0 54.3 µM | HCC 2998 > 100 µM | IGROV-1 68.1 µM | K562 36.7 µM | LOX IMVI > 100 µM | M14 > 100 µM | MDA-MB-231 30.8 µM | MOLT-4 24.2 µM | NCI-H522 38 µM | NCI/ADR-RES 9.51 µM | PC-3 50.5 µM | RXF 393 43.4 µM | SF-268 26.5 µM | SK-MEL-2 36.4 µM | SK-OV-3 73.6 µM | T47D > 100 µM | TK-10 36.4 µM | U-251 32.6 µM | UACC-257 > 100 µM

Cc1cc2c(cc1-c1cc3c(cc1C)C(C(C)C)=C(O)C(=O)/C3=C\Nc1cccc3c(N)cccc13)/C(=C/Nc1cccc3c(N)cccc13)C(=O)C(O)=C2C(C)C
inactive: 786-0 > 100 µM | HCC 2998 > 100 µM | IGROV-1 > 100 µM | K562 54.3 µM | LOX IMVI > 100 µM | M14 48.5 µM | MDA-MB-231 > 100 µM | MOLT-4 37.4 µM | NCI-H522 > 100 µM | NCI/ADR-RES > 100 µM | PC-3 79.8 µM | RXF 393 > 100 µM | SF-268 > 100 µM | SK-MEL-2 > 100 µM | SK-OV-3 > 100 µM | T47D > 100 µM | TK-10 > 100 µM | U-251 49.1 µM | UACC-257 > 100 µM

COc1cc(CC2c3cc(OC)c(OC)cc3CCN2C)c(Oc2cc3c(cc2OC)-c2c(O)c(OC)cc4c2C(C3)N(C)CC4)cc1OC (stereo not given)
inactive: 786-0 23.1 µM | HCC 2998 13.1 µM | IGROV-1 20 µM | K562 10.8 µM | LOX IMVI 16.5 µM | M14 5.04 µM | MDA-MB-231 18.3 µM | MOLT-4 19.4 µM | NCI-H522 17.8 µM | NCI/ADR-RES 20.6 µM | PC-3 23.3 µM | RXF 393 2.11 µM | SF-268 17.8 µM | SK-MEL-2 22.8 µM | SK-OV-3 41.1 µM | T47D 22.1 µM | TK-10 22 µM | U-251 24.5 µM | UACC-257 14.5 µM

Cc1nn2c(=O)c([N+](=O)[O-])c(/C=C/c3ccco3)nc2s1
inactive: 786-0 76 µM | HCC 2998 > 100 µM | IGROV-1 51.8 µM | K562 36.6 µM | LOX IMVI 17.6 µM | M14 64.7 µM | MDA-MB-231 63.4 µM | MOLT-4 31.7 µM | NCI-H522 60.5 µM | NCI/ADR-RES 46.9 µM | PC-3 68.2 µM | RXF 393 28.7 µM | SF-268 36.4 µM | SK-MEL-2 57 µM | SK-OV-3 43.6 µM | T47D 27.8 µM | TK-10 > 100 µM | U-251 29.4 µM | UACC-257 87.5 µM

O=C(N/N=C(COc1ccc(Cl)cc1)\N=C\c1cccnc1)c1ccncc1
inactive: 786-0 > 100 µM | HCC 2998 88.1 µM | IGROV-1 > 100 µM | K562 64.4 µM | LOX IMVI > 100 µM | M14 > 100 µM | MDA-MB-231 > 100 µM | MOLT-4 84.3 µM | NCI-H522 23.5 µM | NCI/ADR-RES 57.4 µM | PC-3 > 100 µM | RXF 393 77.3 µM | SF-268 63.8 µM | SK-MEL-2 > 100 µM | SK-OV-3 > 100 µM | T47D > 100 µM | TK-10 > 100 µM | U-251 > 100 µM | UACC-257 99.5 µM

ClCc1nc2cc(Cl)ccc2o1
inactive: 786-0 1.67 µM | HCC 2998 2.26 µM | IGROV-1 1.61 µM | K562 2.56 µM | LOX IMVI 2.44 µM | M14 4.31 µM | MDA-MB-231 3.16 µM | MOLT-4 2.19 µM | NCI-H522 1.6 µM | NCI/ADR-RES 20.3 µM | PC-3 5.15 µM | RXF 393 12.2 µM | SF-268 7.98 µM | SK-MEL-2 5.78 µM | SK-OV-3 14.8 µM | T47D 2.44 µM | TK-10 2.83 µM | U-251 3.15 µM | UACC-257 9.16 µM

O=C(Nc1ccc(Nc2ccc3c(c2)C(=O)c2ccccc2C3=O)c2c1C(=O)c1ccccc1C2=O)c1ccccc1
inactive: 786-0 38.8 µM | HCC 2998 6.84 µM | IGROV-1 32.3 µM | K562 7 µM | LOX IMVI > 82.2 µM | M14 > 91.8 µM | MDA-MB-231 46.6 µM | MOLT-4 11.3 µM | NCI-H522 3.36 µM | NCI/ADR-RES 22 µM | PC-3 12.1 µM | RXF 393 20.3 µM | SF-268 44.9 µM | SK-MEL-2 11.9 µM | SK-OV-3 67.9 µM | T47D 42.1 µM | TK-10 95.3 µM | U-251 19.5 µM | UACC-257 > 100 µM

Cc1ccc2c(c1)C(C(=O)N[C@@H]1C(=O)N3[C@@H]1SC(C)(C)[C@@H]3C(=O)O)OCCC2 (stereo not given in full)
inactive: 786-0 > 100 µM | HCC 2998 > 100 µM | IGROV-1 > 100 µM | K562 > 100 µM | LOX IMVI > 100 µM | M14 > 100 µM | MDA-MB-231 > 100 µM | MOLT-4 > 100 µM | NCI-H522 > 100 µM | NCI/ADR-RES > 100 µM | PC-3 > 100 µM | RXF 393 > 100 µM | SF-268 > 100 µM | SK-MEL-2 > 100 µM | SK-OV-3 > 100 µM | T47D > 100 µM | TK-10 > 100 µM | U-251 > 100 µM | UACC-257 > 100 µM

O=C1CCCC2(c3ccccc3)Nc3ccccc3N12 (stereo not given)
inactive: 786-0 > 100 µM | HCC 2998 > 100 µM | IGROV-1 > 100 µM | K562 82.6 µM | LOX IMVI > 100 µM | M14 > 100 µM | MDA-MB-231 > 100 µM | MOLT-4 > 100 µM | NCI-H522 > 100 µM | NCI/ADR-RES > 100 µM | PC-3 > 100 µM | RXF 393 > 100 µM | SF-268 > 100 µM | SK-MEL-2 > 100 µM | SK-OV-3 > 100 µM | T47D > 100 µM | TK-10 > 100 µM | U-251 > 100 µM | UACC-257 > 100 µM

Cc1c(O)c(OC2OC(CO)C(O)C(O)C2O)cc2c1C=C[C@@H]1[C@@]2(C)C(=O)C[C@]2(C)[C@@H]([C@@](C)(O)C(=O)CCC(C)(C)O)[C@H](O)C[C@@]12C (stereo not given in full)
inactive: 786-0 25.2 µM | HCC 2998 20.5 µM | IGROV-1 19.7 µM | K562 34.1 µM | LOX IMVI 22.6 µM | M14 26.4 µM | MDA-MB-231 21.1 µM | MOLT-4 19.7 µM | NCI-H522 24.6 µM | NCI/ADR-RES 25.5 µM | PC-3 21.6 µM | RXF 393 18.6 µM | SF-268 28.7 µM | SK-MEL-2 26.2 µM | SK-OV-3 15.7 µM | T47D 18.7 µM | TK-10 18.1 µM | U-251 20.7 µM | UACC-257 20.9 µM
